Measured values as given in PubChem BioAssay AID1745844 (Carcinogenic Potency Database (CPDB), 2022).
Several values for one entry are separate records, joined by “and”; a condition that tells them apart may be missing. Equal values may be shown once. Activity calls are given as the source filed them. No rule for the calls is given here.

Tested on: rodent lifetime carcinogenesis bioassay, tumor incidence TD50
Assay: chronic cancer bioassays in animals – CPDB, compiled studies (AID 1745844)

SMILES: CCOC(=O)CC(SP(=O)(OC)OC)C(=O)OCC (stereo unspecified)
- carcinogen call (mouse, strain B6C3F1, females, in feed, site: any site (literature study), lesion: several types, types named in the paper, dosed 103 weeks, study length 103 weeks): negative (inactive)
- TD50 (mouse, strain B6C3F1, females, in feed, site: lung, lesion: alveolar/bronchiolar adenoma + alveolar/bronchiolar carcinoma, dosed 103 weeks, study length 103 weeks): 2760 mg/kg/day
- TD50 (mouse, strain B6C3F1, males, in feed, site: any site (literature study), lesion: several types, types named in the paper, dosed 103 weeks, study length 103 weeks): 472 mg/kg/day (inactive)
- TD50 (mouse, strain B6C3F1, males, in feed, site: liver, lesion: hepatocellular adenoma + hepatocellular carcinoma + neoplastic nodule, dosed 103 weeks, study length 103 weeks): 579 mg/kg/day
- TD50 (mouse, strain B6C3F1, males, in feed, site: lung, lesion: alveolar/bronchiolar adenoma + alveolar/bronchiolar carcinoma, dosed 103 weeks, study length 103 weeks): 3230 mg/kg/day
- TD50 (rat, strain Fischer 344, females, in feed, site: thyroid gland, lesion: c-cell adenoma + c-cell carcinoma, dosed 103 weeks, study length 104 weeks): 296 mg/kg/day (inactive)
- carcinogen call (rat, strain Fischer 344, males, in feed, site: any site (literature study), lesion: several types, types named in the paper, dosed 103 weeks, study length 104 weeks): negative (inactive)
- TD50 (rat, strain Fischer 344, males, in feed, site: liver, lesion: hepatocellular adenoma + hepatocellular carcinoma + neoplastic nodule, dosed 103 weeks, study length 104 weeks): 1560 mg/kg/day

SMILES: CN(C#N)N=O
- TD50 (rat, strain Sprague-Dawley, females, in drinking water, site: forestomach, lesion: carcinoma, dosed 60 weeks, study length 95 weeks): 1.17 mg/kg/day
- TD50 (rat, strain Sprague-Dawley, females, in drinking water, site: forestomach, lesion: several types, types named in the paper, dosed 60 weeks, study length 95 weeks): 0.48 mg/kg/day

SMILES: Cc1c(N(C)C)c(=O)n(-c2ccccc2)n1C
- carcinogen call (mouse, strain B6C3F1, females, in drinking water, site: any site (literature study), lesion: one or several types, types not named, dosed 100 weeks, study length 104 weeks): negative (inactive)
- TD50 (mouse, strain B6C3F1, females, in drinking water, site: liver, lesion: hepatocellular adenoma, dosed 100 weeks, study length 104 weeks): 6150 mg/kg/day (inactive)
- carcinogen call (mouse, strain B6C3F1, females, in drinking water, site: liver, lesion: hepatocellular carcinoma, dosed 100 weeks, study length 104 weeks): negative (inactive)
- carcinogen call (mouse, strain B6C3F1, females, in drinking water, site: lung, lesion: alveolar/bronchiolar adenoma, dosed 100 weeks, study length 104 weeks): negative (inactive)
- TD50 (mouse, strain B6C3F1, females, in drinking water, site: lung, lesion: alveolar/bronchiolar carcinoma, dosed 100 weeks, study length 104 weeks): 6540 mg/kg/day (inactive)
- TD50 (mouse, strain B6C3F1, males, in drinking water, site: any site (literature study), lesion: one or several types, types not named, dosed 100 weeks, study length 104 weeks): 156 mg/kg/day (inactive)
- TD50 (mouse, strain B6C3F1, males, in drinking water, site: liver, lesion: hepatocellular adenoma, dosed 100 weeks, study length 104 weeks): 683 mg/kg/day (inactive)
- TD50 (mouse, strain B6C3F1, males, in drinking water, site: liver, lesion: hepatocellular carcinoma, dosed 100 weeks, study length 104 weeks): 5390 mg/kg/day (inactive)
- TD50 (mouse, strain B6C3F1, males, in drinking water, site: lung, lesion: alveolar/bronchiolar adenoma, dosed 100 weeks, study length 104 weeks): 1480 mg/kg/day (inactive)
- carcinogen call (mouse, strain B6C3F1, males, in drinking water, site: lung, lesion: alveolar/bronchiolar carcinoma, dosed 100 weeks, study length 104 weeks): negative (inactive)

SMILES: OCCBr
- TD50 (mouse, strain B6C3F1, females, in drinking water, site: any site (literature study), lesion: several types, types named in the paper, dosed 79 weeks, study length 79 weeks): 73.2 mg/kg/day
- TD50 (mouse, strain B6C3F1, females, in drinking water, site: forestomach, lesion: squamous-cell papilloma, dosed 79 weeks, study length 79 weeks): 69.7 mg/kg/day
- TD50 (mouse, strain B6C3F1, females, in drinking water, site: liver, lesion: hemangioma, dosed 79 weeks, study length 79 weeks): 800 mg/kg/day
- TD50 (mouse, strain B6C3F1, females, in drinking water, site: lung, lesion: papillary tumor, dosed 79 weeks, study length 79 weeks): 1890 mg/kg/day
- TD50 (mouse, strain B6C3F1, males, in drinking water, site: any site (literature study), lesion: several types, types named in the paper, dosed 78 weeks, study length 78 weeks): 86.6 mg/kg/day
- TD50 (mouse, strain B6C3F1, males, in drinking water, site: forestomach, lesion: squamous-cell papilloma, dosed 78 weeks, study length 78 weeks): 83.9 mg/kg/day

SMILES: C=C/C1=C/C(C)C(C)(OC(C)=O)C(=O)OCC2=CC[N+]3(C)CCC(OC1=O)C23O (stereo unspecified)
- TD50 (rat, strain ACI, both sexes, in drinking water, site: liver, lesion: hemangioendothelial sarcoma, dosed 48 weeks, study length 68 weeks): 3.01 mg/kg/day
- TD50 (rat, strain ACI, both sexes, in drinking water, site: liver, lesion: neoplastic nodule, dosed 48 weeks, study length 68 weeks): 0.697 mg/kg/day
- TD50 (rat, strain ACI, both sexes, in drinking water, site: liver, lesion: several types, types named in the paper, dosed 48 weeks, study length 68 weeks): 0.5 mg/kg/day

SMILES: Cc1ccc(C)c(N)c1
- TD50 (mouse, strain CD-1 HaM/ICR, females, in feed, site: any site (literature study), lesion: several types, types named in the paper, dosed 68 weeks, study length 94 weeks): 475 mg/kg/day
- TD50 (mouse, strain CD-1 HaM/ICR, females, in feed, site: liver, lesion: hepatoma, dosed 68 weeks, study length 94 weeks): 552 mg/kg/day
- TD50 (mouse, strain CD-1 HaM/ICR, females, in feed, site: liver, lesion: several types, types named in the paper, dosed 68 weeks, study length 94 weeks): 552 mg/kg/day
- TD50 (mouse, strain CD-1 HaM/ICR, females, in feed, site: lung, lesion: several types, types named in the paper, dosed 68 weeks, study length 94 weeks): 1290 mg/kg/day (inactive)
- TD50 (mouse, strain CD-1 HaM/ICR, males, in feed, site: all sites, lesion: all vascular tumors, dosed 68 weeks, study length 94 weeks): 723 mg/kg/day
- TD50 (mouse, strain CD-1 HaM/ICR, males, in feed, site: any site (literature study), lesion: several types, types named in the paper, dosed 68 weeks, study length 94 weeks): 321 mg/kg/day
- TD50 (mouse, strain CD-1 HaM/ICR, males, in feed, site: liver, lesion: several types, types named in the paper, dosed 68 weeks, study length 94 weeks): 805 mg/kg/day
- TD50 (mouse, strain CD-1 HaM/ICR, males, in feed, site: lung, lesion: several types, types named in the paper, dosed 68 weeks, study length 94 weeks): 765 mg/kg/day (inactive)
- TD50 (rat, strain Charles River CD (Sprague-Dawley), males, in feed, site: any site (literature study), lesion: several types, types named in the paper, dosed 77 weeks, study length 103 weeks): 67.2 mg/kg/day
- TD50 (rat, strain Charles River CD (Sprague-Dawley), males, in feed, site: liver, lesion: several types, types named in the paper, dosed 77 weeks, study length 103 weeks): 3260 mg/kg/day (inactive)
- TD50 (rat, strain Charles River CD (Sprague-Dawley), males, in feed, site: subcutaneous tissue, lesion: several types, types named in the paper, dosed 77 weeks, study length 103 weeks): 152 mg/kg/day

SMILES: O=C1NCCN1
- TD50 (mouse, strain B6AKF1, females, oral dosing, site: any site (literature study), lesion: several types, types named in the paper, dosed 76 weeks, study length 76 weeks): 473 mg/kg/day (inactive)
- carcinogen call (mouse, strain B6AKF1, females, oral dosing, site: liver, lesion: hepatoma, dosed 76 weeks, study length 76 weeks): negative (inactive)
- TD50 (mouse, strain B6AKF1, females, oral dosing, site: lung, lesion: adenoma, dosed 76 weeks, study length 76 weeks): 505 mg/kg/day (inactive)
- carcinogen call (mouse, strain B6AKF1, males, oral dosing, site: any site (literature study), lesion: several types, types named in the paper, dosed 76 weeks, study length 76 weeks): negative (inactive)
- TD50 (mouse, strain B6AKF1, males, oral dosing, site: liver, lesion: hepatoma, dosed 76 weeks, study length 76 weeks): 500 mg/kg/day (inactive)
- carcinogen call (mouse, strain B6AKF1, males, oral dosing, site: lung, lesion: adenoma, dosed 76 weeks, study length 76 weeks): negative (inactive)
- carcinogen call (mouse, strain B6C3F1, females, oral dosing, site: any site (literature study), lesion: one or several types, types not named, dosed 76 weeks, study length 76 weeks): negative (inactive)
- carcinogen call (mouse, strain B6C3F1, females, oral dosing, site: liver, lesion: hepatoma, dosed 76 weeks, study length 76 weeks): negative (inactive)
- carcinogen call (mouse, strain B6C3F1, females, oral dosing, site: lung, lesion: several types, types named in the paper, dosed 76 weeks, study length 76 weeks): negative (inactive)
- TD50 (mouse, strain B6C3F1, males, oral dosing, site: any site (literature study), lesion: several types, types named in the paper, dosed 76 weeks, study length 76 weeks): 87.1 mg/kg/day (inactive)
- TD50 (mouse, strain B6C3F1, males, oral dosing, site: liver, lesion: hepatoma, dosed 76 weeks, study length 76 weeks): 242 mg/kg/day (inactive)
- TD50 (mouse, strain B6C3F1, males, oral dosing, site: lung, lesion: adenoma, dosed 76 weeks, study length 76 weeks): 242 mg/kg/day (inactive)

SMILES: C/C=C1/C[C@@H](C)[C@@](C)(O)C(=O)OC/C2=C/CN(C)CC[C@@H](OC1=O)C2=O
- TD50 (rat, strain ACI, males, i.p., site: liver, lesion: liver-cell adenoma, dosed 56 weeks, study length 92 weeks): 1.7 mg/kg/day

SMILES: Nc1ccc(O)c(N)c1
- carcinogen call (mouse, strain B6C3F1, females, by gavage, site: any site (literature study), lesion: several types, types named in the paper, dosed 103 weeks, study length 104 weeks): negative (inactive)
- TD50 (mouse, strain B6C3F1, females, by gavage, site: liver, lesion: hepatocellular adenoma + hepatocellular carcinoma + neoplastic nodule, dosed 103 weeks, study length 104 weeks): 2890 mg/kg/day
- TD50 (mouse, strain B6C3F1, females, by gavage, site: lung, lesion: alveolar/bronchiolar adenoma + alveolar/bronchiolar carcinoma, dosed 103 weeks, study length 104 weeks): 239 mg/kg/day
- TD50 (mouse, strain B6C3F1, males, by gavage, site: kidney, lesion: tubule adenoma, dosed 103 weeks, study length 104 weeks): 320 mg/kg/day and 143 mg/kg/day
- TD50 (mouse, strain B6C3F1, males, by gavage, site: liver, lesion: hepatocellular adenoma + hepatocellular carcinoma + neoplastic nodule, dosed 103 weeks, study length 104 weeks): 164 mg/kg/day
- TD50 (mouse, strain B6C3F1, males, by gavage, site: lung, lesion: alveolar/bronchiolar adenoma + alveolar/bronchiolar carcinoma, dosed 103 weeks, study length 104 weeks): 194 mg/kg/day
- TD50 (rat, strain Fischer 344, females, by gavage, site: any site (literature study), lesion: several types, types named in the paper, dosed 103 weeks, study length 104 weeks): 46.3 mg/kg/day (inactive)
- TD50 (rat, strain Fischer 344, males, by gavage, site: any site (literature study), lesion: several types, types named in the paper, dosed 103 weeks, study length 104 weeks): 543 mg/kg/day (inactive)

SMILES: O=CC(O)C(O)C(O)C(O)CO (stereo unspecified)
- carcinogen call (mouse, strain AP Alderly Park, females, in feed, site: any site (literature study), lesion: several types, types named in the paper, dosed 100 weeks, study length 100 weeks): negative (inactive)
- TD50 (mouse, strain AP Alderly Park, females, in feed, site: liver, lesion: hepatoma, dosed 100 weeks, study length 100 weeks): 538000 mg/kg/day (inactive)
- carcinogen call (mouse, strain AP Alderly Park, females, in feed, site: lung, lesion: adenoma, dosed 100 weeks, study length 100 weeks): negative (inactive)
- TD50 (mouse, strain AP Alderly Park, males, in feed, site: any site (literature study), lesion: several types, types named in the paper, dosed 100 weeks, study length 100 weeks): 132000 mg/kg/day (inactive)
- carcinogen call (mouse, strain AP Alderly Park, males, in feed, site: liver, lesion: hepatoma, dosed 100 weeks, study length 100 weeks): negative (inactive)
- carcinogen call (mouse, strain AP Alderly Park, males, in feed, site: lung, lesion: adenoma, dosed 100 weeks, study length 100 weeks): negative (inactive)
- TD50 (rat, strain AP Alderly Park, females, in feed, site: any site (literature study), lesion: several types, types named in the paper, dosed 104 weeks, study length 104 weeks): 7790 mg/kg/day (inactive)
- carcinogen call (rat, strain AP Alderly Park, females, in feed, site: liver, lesion: one or several types, types not named, dosed 104 weeks, study length 104 weeks): negative (inactive)
- carcinogen call (rat, strain AP Alderly Park, males, in feed, site: any site (literature study), lesion: several types, types named in the paper, dosed 104 weeks, study length 104 weeks): negative (inactive)
- TD50 (rat, strain AP Alderly Park, males, in feed, site: liver, lesion: hepatoma, dosed 104 weeks, study length 104 weeks): 133000 mg/kg/day (inactive)
